Test results from patent US4399126A, “Modulators of the complement system” (American Cyanamid Company, priority 1982, dated 1983).
Like-named read-outs stand apart in the source and are kept apart here.

How the values were obtained:
[1] = tested on: late components of human complement (C3-C9); assay: Test Code 035 (C3-C9 inhibitor), lysis of EAC 142; assay type: biochemical; conditions: serial twofold dilution assay; higher well number indicates higher activity
activated human C1 = molecular target: T1, activated human C1 (Homo sapiens, UniProt P09871); assay: Test Code 026 (C1 inhibitor); assay type: biochemical; conditions: serial twofold dilution assay; higher well number indicates higher activity
T1 sequence (P09871 16-437 limits assumed): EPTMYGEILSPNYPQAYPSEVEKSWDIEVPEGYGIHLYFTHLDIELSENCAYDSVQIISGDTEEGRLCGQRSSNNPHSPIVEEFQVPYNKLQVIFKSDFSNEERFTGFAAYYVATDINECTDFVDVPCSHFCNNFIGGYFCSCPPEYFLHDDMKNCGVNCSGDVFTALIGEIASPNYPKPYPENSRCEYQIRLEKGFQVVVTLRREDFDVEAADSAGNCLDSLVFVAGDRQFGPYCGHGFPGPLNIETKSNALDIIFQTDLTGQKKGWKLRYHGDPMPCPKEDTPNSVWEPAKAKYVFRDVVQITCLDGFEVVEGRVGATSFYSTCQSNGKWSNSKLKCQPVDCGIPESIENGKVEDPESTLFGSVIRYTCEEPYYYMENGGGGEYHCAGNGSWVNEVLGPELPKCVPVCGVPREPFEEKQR
T1 sequence (P09871 438-688 limits assumed): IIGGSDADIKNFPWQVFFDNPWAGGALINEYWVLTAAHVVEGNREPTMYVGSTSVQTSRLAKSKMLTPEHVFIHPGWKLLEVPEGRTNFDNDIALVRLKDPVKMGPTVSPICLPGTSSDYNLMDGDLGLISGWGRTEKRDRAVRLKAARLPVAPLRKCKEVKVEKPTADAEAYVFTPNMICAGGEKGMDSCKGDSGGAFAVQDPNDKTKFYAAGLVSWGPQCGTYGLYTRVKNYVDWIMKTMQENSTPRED

[2] = tested on: complement activity of sera; assay: Guinea Pig Intraperitoneal Test (GPIP); assay type: in vivo; conditions: Cavia porcellus, ip, 200 mg/kg i.p., capillary complement assay
Method: Percent inhibition is calculated by comparison with simultaneous controls.

[3] = blood 2 hours after injection, read-out: in vivo Activity Guinea Pig % Inhibition Intraperitoneal, 2 hours
[4] = blood 6 hours after injection, read-out: in vivo Activity Guinea Pig % Inhibition Intraperitoneal, 6 hours
[5] = blood 24 hours after injection, read-out: in vivo Activity Guinea Pig % Inhibition Intraperitoneal, 24 hours

SMILES: O=C(CCCCCCCCC(=O)Nc1ccc(S[C@@H]2O[C@H](COS(=O)(=O)O)[C@@H](O[C@H]3O[C@H](COS(=O)(=O)O)[C@@H](OS(=O)(=O)O)[C@H](OS(=O)(=O)O)[C@H]3OS(=O)(=O)O)[C@H](OS(=O)(=O)O)[C@H]2OS(=O)(=O)O)cc1)Nc1ccc(S[C@@H]2O[C@H](COS(=O)(=O)O)[C@@H](O[C@H]3O[C@H](COS(=O)(=O)O)[C@@H](OS(=O)(=O)O)[C@H](OS(=O)(=O)O)[C@H]3OS(=O)(=O)O)[C@H](OS(=O)(=O)O)[C@H]2OS(=O)(=O)O)cc1.[Na].[Na].[Na].[Na].[Na].[Na].[Na].[Na].[Na].[Na].[Na].[Na].[Na].[Na] [tetradecasodium N,N'-bis[4-[2,3,6-tri-O-sulfo-4-O-(2,3,4,6-tetra-O-sulfo-α-D-glucopyranosyl)-β-D-glucopyranosylthio]phenyl]decanediamide]
- in vitro Activity C-Late 035 Wells [1]: 0.8 Wells
- in vitro Activity Cl 026 Wells (activated human C1): 5.0 Wells
- inhibition at 200 mg/kg [2, 3]: 88%
- inhibition at 200 mg/kg [2, 4]: 87%
- inhibition at 200 mg/kg [2, 5]: 75%

SMILES: O=C(CCCC(=O)Nc1ccc(S[C@@H]2O[C@H](COS(=O)(=O)O)[C@@H](O[C@@H]3O[C@H](COS(=O)(=O)O)[C@@H](OS(=O)(=O)O)[C@H](OS(=O)(=O)O)[C@H]3OS(=O)(=O)O)[C@H](OS(=O)(=O)O)[C@H]2OS(=O)(=O)O)cc1)Nc1ccc(S[C@@H]2O[C@H](COS(=O)(=O)O)[C@@H](O[C@@H]3O[C@H](COS(=O)(=O)O)[C@@H](OS(=O)(=O)O)[C@H](OS(=O)(=O)O)[C@H]3OS(=O)(=O)O)[C@H](OS(=O)(=O)O)[C@H]2OS(=O)(=O)O)cc1.[Na].[Na].[Na].[Na].[Na].[Na].[Na].[Na].[Na].[Na].[Na].[Na].[Na].[Na] [tetradecasodium N,N'-bis[4-[2,3,6-tri-O-sulfo-4-O-(2,3,4,6-tetra-O-sulfo-β-D-glucopyranosyl)-β-D-glucopyranosylthio]phenyl]pentanediamide]
- in vitro Activity C-Late 035 Wells [1]: 2.0 Wells
- in vitro Activity Cl 026 Wells (activated human C1): 12 Wells

SMILES: O=C(CCCCCCC(=O)Nc1ccc(S[C@@H]2O[C@H](COS(=O)(=O)O)[C@@H](O[C@H]3O[C@H](COS(=O)(=O)O)[C@@H](OS(=O)(=O)O)[C@H](OS(=O)(=O)O)[C@H]3OS(=O)(=O)O)[C@H](OS(=O)(=O)O)[C@H]2OS(=O)(=O)O)cc1)Nc1ccc(S[C@@H]2O[C@H](COS(=O)(=O)O)[C@@H](O[C@H]3O[C@H](COS(=O)(=O)O)[C@@H](OS(=O)(=O)O)[C@H](OS(=O)(=O)O)[C@H]3OS(=O)(=O)O)[C@H](OS(=O)(=O)O)[C@H]2OS(=O)(=O)O)cc1.[Na].[Na].[Na].[Na].[Na].[Na].[Na].[Na].[Na].[Na].[Na].[Na].[Na].[Na] [Tetradecasodium N,N'-bis[4-[2,3,6-tri-O-sulfo-4-O-(2,3,4,6-tetra-O-sulfo-α-D-glucopyranosyl)-β-D-glucopyranosylthio]phenyl]octanediamide]
- in vitro Activity C-Late 035 Wells [1]: 1.5 Wells
- in vitro Activity Cl 026 Wells (activated human C1): 9 Wells
- inhibition at 200 mg/kg [2, 3]: 87%
- inhibition at 200 mg/kg [2, 4]: 71%
- inhibition at 200 mg/kg [2, 5]: 44%

SMILES: O=C(CC(=O)Nc1ccc(S[C@@H]2O[C@H](COS(=O)(=O)O)[C@@H](O[C@H]3O[C@H](COS(=O)(=O)O)[C@@H](OS(=O)(=O)O)[C@H](OS(=O)(=O)O)[C@H]3OS(=O)(=O)O)[C@H](OS(=O)(=O)O)[C@H]2OS(=O)(=O)O)cc1)Nc1ccc(S[C@@H]2O[C@H](COS(=O)(=O)O)[C@@H](O[C@H]3O[C@H](COS(=O)(=O)O)[C@@H](OS(=O)(=O)O)[C@H](OS(=O)(=O)O)[C@H]3OS(=O)(=O)O)[C@H](OS(=O)(=O)O)[C@H]2OS(=O)(=O)O)cc1.[Na].[Na].[Na].[Na].[Na].[Na].[Na].[Na].[Na].[Na].[Na].[Na].[Na].[Na] [tetradecasodium N,N'-bis[4-[2,3,6-tri-O-sulfo-4-O-(2,3,4,6-tetra-O-sulfo-α-D-glucopyranosyl)-β-D-glucopyranosylthio]phenyl]propanediamide]
- in vitro Activity C-Late 035 Wells [1]: 1.6 Wells
- in vitro Activity Cl 026 Wells (activated human C1): 9.9 Wells
- inhibition at 200 mg/kg [2, 3]: 90%
- inhibition at 200 mg/kg [2, 4]: 90%
- inhibition at 200 mg/kg [2, 5]: 47%

SMILES: O=C(CCC(=O)Nc1ccc(S[C@@H]2O[C@H](COS(=O)(=O)O)[C@@H](O[C@H]3O[C@H](COS(=O)(=O)O)[C@@H](OS(=O)(=O)O)[C@H](OS(=O)(=O)O)[C@H]3OS(=O)(=O)O)[C@H](OS(=O)(=O)O)[C@H]2OS(=O)(=O)O)cc1)Nc1ccc(S[C@@H]2O[C@H](COS(=O)(=O)O)[C@@H](O[C@H]3O[C@H](COS(=O)(=O)O)[C@@H](OS(=O)(=O)O)[C@H](OS(=O)(=O)O)[C@H]3OS(=O)(=O)O)[C@H](OS(=O)(=O)O)[C@H]2OS(=O)(=O)O)cc1 [Tetradecasodium N,N'--bis[4-[2,3,6-tri-O--sulfo-4-O--(2,3,4,6-tetra-O--sulfo-α-D-glucopyranosyl)-β -D-glucopyranosylthio]phenyl]butanediamide]
- in vitro Activity C-Late 035 Wells [1]: 1.4 Wells
- in vitro Activity Cl 026 Wells (activated human C1): 10.2 Wells

SMILES: O=C(Nc1ccc(S[C@@H]2O[C@H](COS(=O)(=O)O)[C@@H](O[C@H]3O[C@H](COS(=O)(=O)O)[C@@H](OS(=O)(=O)O)[C@H](OS(=O)(=O)O)[C@H]3OS(=O)(=O)O)[C@H](OS(=O)(=O)O)[C@H]2OS(=O)(=O)O)cc1)C(=O)Nc1ccc(S[C@@H]2O[C@H](COS(=O)(=O)O)[C@@H](O[C@H]3O[C@H](COS(=O)(=O)O)[C@@H](OS(=O)(=O)O)[C@H](OS(=O)(=O)O)[C@H]3OS(=O)(=O)O)[C@H](OS(=O)(=O)O)[C@H]2OS(=O)(=O)O)cc1.[Na].[Na].[Na].[Na].[Na].[Na].[Na].[Na].[Na].[Na].[Na].[Na].[Na].[Na] [tetradecasodium N,N'-bis[4-[2,3,6-tri-O-sulfo-4-O-(2,3,4,6-tetra-O-sulfo-α-D-glucopyranosyl)-β-D-glucopyranosylthio]phenyl]ethanediamide]
- in vitro Activity C-Late 035 Wells [1]: 1.2 Wells
- in vitro Activity Cl 026 Wells (activated human C1): 9.5 Wells
- inhibition at 200 mg/kg [2, 3]: 90%
- inhibition at 200 mg/kg [2, 4]: 90%
- inhibition at 200 mg/kg [2, 5]: 80%

SMILES: O=C(CCCCCCCCCCCCC(=O)Nc1ccc(S[C@@H]2O[C@H](COS(=O)(=O)O)[C@@H](O[C@H]3O[C@H](COS(=O)(=O)O)[C@@H](OS(=O)(=O)O)[C@H](OS(=O)(=O)O)[C@H]3OS(=O)(=O)O)[C@H](OS(=O)(=O)O)[C@H]2OS(=O)(=O)O)cc1)Nc1ccc(S[C@@H]2O[C@H](COS(=O)(=O)O)[C@@H](O[C@H]3O[C@H](COS(=O)(=O)O)[C@@H](OS(=O)(=O)O)[C@H](OS(=O)(=O)O)[C@H]3OS(=O)(=O)O)[C@H](OS(=O)(=O)O)[C@H]2OS(=O)(=O)O)cc1.[Na].[Na].[Na].[Na].[Na].[Na].[Na].[Na].[Na].[Na].[Na].[Na].[Na].[Na] [tetradecasodium N,N'-bis[4-[2,3,6-tri-O-sulfo-4-O-(2,3,4,6-tetra-O-sulfo-α-D-glucopyranosyl)-β-D-glucopyranosylthio]phenyl]tetradecanediamide]
- in vitro Activity C-Late 035 Wells [1]: 3.0 Wells
- in vitro Activity Cl 026 Wells (activated human C1): 7 Wells

SMILES: O=C(CCCC(=O)Nc1ccc(S[C@@H]2O[C@H](COS(=O)(=O)O)[C@@H](O[C@H]3O[C@H](COS(=O)(=O)O)[C@@H](OS(=O)(=O)O)[C@H](OS(=O)(=O)O)[C@H]3OS(=O)(=O)O)[C@H](OS(=O)(=O)O)[C@H]2OS(=O)(=O)O)cc1)Nc1ccc(S[C@@H]2O[C@H](COS(=O)(=O)O)[C@@H](O[C@H]3O[C@H](COS(=O)(=O)O)[C@@H](OS(=O)(=O)O)[C@H](OS(=O)(=O)O)[C@H]3OS(=O)(=O)O)[C@H](OS(=O)(=O)O)[C@H]2OS(=O)(=O)O)cc1.[Na].[Na].[Na].[Na].[Na].[Na].[Na].[Na].[Na].[Na].[Na].[Na].[Na].[Na] [tetradecasodium N,N'-bis[4-[2,3,6-tri-O-sulfo-4-O-(2,3,4,6-tetra-O-sulfo-α-D-glucopyranosyl)-β-D-glucopyranosylthio]phenyl]pentanediamide]
- in vitro Activity C-Late 035 Wells [1]: 1.5 Wells
- in vitro Activity Cl 026 Wells (activated human C1): 9.9 Wells
- inhibition at 200 mg/kg [2, 3]: 90%
- inhibition at 200 mg/kg [2, 4]: 88%
- inhibition at 200 mg/kg [2, 5]: 44%

SMILES: O=C(CCCCCC(=O)Nc1ccc(S[C@@H]2O[C@H](COS(=O)(=O)O)[C@@H](O[C@H]3O[C@H](COS(=O)(=O)O)[C@@H](OS(=O)(=O)O)[C@H](OS(=O)(=O)O)[C@H]3OS(=O)(=O)O)[C@H](OS(=O)(=O)O)[C@H]2OS(=O)(=O)O)cc1)Nc1ccc(S[C@@H]2O[C@H](COS(=O)(=O)O)[C@@H](O[C@H]3O[C@H](COS(=O)(=O)O)[C@@H](OS(=O)(=O)O)[C@H](OS(=O)(=O)O)[C@H]3OS(=O)(=O)O)[C@H](OS(=O)(=O)O)[C@H]2OS(=O)(=O)O)cc1.[Na].[Na].[Na].[Na].[Na].[Na].[Na].[Na].[Na].[Na].[Na].[Na].[Na].[Na] [tetradecasodium N,N'-bis[4-[2,3,6-tri-O-sulfo-4-O-(2,3,4,6-tetra-O-sulfo-α-D-glucopyranosyl)-β-D-glucopyranosylthio]phenyl]heptanediamide]
- in vitro Activity C-Late 035 Wells [1]: 1.0 Wells
- in vitro Activity Cl 026 Wells (activated human C1): 10.7 Wells
- inhibition at 200 mg/kg [2, 3]: 87%
- inhibition at 200 mg/kg [2, 4]: 87%
- inhibition at 200 mg/kg [2, 5]: 50%
